{"source": "paper PMC6154692", "about": "“Determination of Vancomycin in Human Serum by Cyclodextrin-Micellar Electrokinetic Capillary Chromatography (CD-MEKC) and Application for PDAP Patients” (Molecules : A Journal of Synthetic Chemistry and Natural …, 2017)", "key": {"[1]": {"system": "PDAP patients", "assay": "Clinical safety observation in PDAP patients treated with i.p. vancomycin", "assay_type": "in vivo, human", "description": "Patients were treated with intraperitoneal (i.p.) vancomycin (Vancocin, Eli Lilly) for 1.0 g every 5–7 days. Nine PDAP patients’ samples were collected, and the trough concentrations of VCM were measured. […] Side effects were not observed in patients who were treated with VCM. The 15–20 µg/mL range was determined in three samples (17.06 µg/mL, 15.39 µg/mL, and 19.25 µg/mL), which was reported as the effective treatment window. […] In view of patients’ residual renal function and peritoneal permeability, levels <15 µg/mL were found in four samples (12.88 µg/mL, 5.48 µg/mL, 8.90 µg/mL, and 9.30 µg/mL). ISPD recommends that re-dosing is appropriate once serum vancomycin levels go below 15 µg/mL."}, "[2]": {"design": "method as in doi:10.1016/0378-5173(93)90252-B", "conditions": "cited from earlier work", "description": "The pH value of BGE is an important factor in CE. VCM is a glycopeptide antibiotic with quite a complex structure. It contains six functional groups which participate in acid-base equilibria. Namely, its net charge in solution strongly depends on the solution pH. […] Protonations of amino (primary and secondary amino) and three phenolate groups take place between pH 13 and 5 in multiply overlapping stages. […] Owing to t ..."}, "[3]": {"conditions": "intraperitoneal, in the presence of peritonitis; ref guideline of ISPD; cited from earlier work"}, "[4]": {"assay": "Stability of VCM in spiked human serum QC samples (bench-top, 30-day, autosampler, freeze-thaw), read by CD-MEKC", "assay_type": "in vitro ADME", "conditions": "for Accuracy (%), autosampler stability / Accuracy (%), freeze–thaw stability / Accuracy (%), bench-top stability / Accuracy (%), 30-day stability: found vs initial concentration, CD-MEKC UV; for Accuracy (%), autosampler stability: 25 °C for 8 h; for Accuracy (%), autosampler stability / Accuracy (%), freeze–thaw stability / Accuracy (%), bench-top stability / Accuracy (%), 30-day stability / Measured Concentration (Mean ± SD), bench-top stability / Measured Concentration (Mean ± SD), autosampler stability / Measured Concentration (Mean ± SD), freeze–thaw stability / Measured Concentration (Mean ± SD), 30-day stability: n = 5; for Accuracy (%), freeze–thaw stability: three freeze–thaw cycles; for Accuracy (%), bench-top stability: 25 °C for 2 h; for Accuracy (%), 30-day stability: −80 °C, 30 days; for Measured Concentration (Mean ± SD), bench-top stability: ambient temperature (25 °C) for 2 h; for Measured Concentration (Mean ± SD), bench-top stability / Measured Concentration (Mean ± SD), autosampler stability / Measured Concentration (Mean ± SD), freeze–thaw stability / Measured Concentration (Mean ± SD), 30-day stability: CD-MEKC UV 210 nm; for Measured Concentration (Mean ± SD), autosampler stability: spiked human serum sample, kept at ambient temperature (25 °C) for 8 h; for Measured Concentration (Mean ± SD), freeze–thaw stability: after three freeze–thaw cycles; for Measured Concentration (Mean ± SD), 30-day stability: stored at −80 °C for 30 days", "description": "Analyte stability determinations comprised short-term temperature stability (bench-top stability), long-term stability (30-day stability), autosampler stability, and freeze-thaw cycles stability, which were evaluated by analyzing three QC levels in VCM. The peak areas obtained from both stability tests were compared with the peak areas obtained with freshly prepared samples. The mean values and standard deviations of the ratios between the concentrations found and initial concentration were used for stability evaluation.\nThe BGE used in this study was 25 mM borate buffer with 50 mM SDS and 2% sulfobutyl-β-CD (pH 9.50). It was prepared by weighting appropriate amounts of Na2B4O7∙10H2O, SDS, and sulfobutyl-β-CD, followed by thoroughly mixing and dissolving with 100 mL deionized water. NaOH (1 mol/L) was used for adjusting pH to 9.50. BGE solutions were prepared freshly every day and filtered through a 0.45 μm hydrophilic cellulose membrane filter prior to use. The separation voltage was 15 kV (+) → (−). Hydrodynamic injection mode was performed at a pressure of 0.5 psi for 5 s. The capillary was conditioned by rinsing with 0.1 mol/L NaOH (1 min) followed by BGE (5 min) sequentially between the runs in order to maintain an active and reproducible inner surface.\nStandard stock solution (1 mg/mL) of VCM and the IS were prepared in methanol. Working standard solutions (ranging from 10 to 500 µg/mL) were prepared daily by diluting the stock solution to the desired concentration with deionized water. The IS solution was prepared by deionized water at the concentration of 200 µg/mL. The standard solutions were stored in brown glass vials to protect from light at 4 °C. Calibration samples were obtained by diluting standard working solutions (10 μL) with drug-free human control serum (90 μL), to span a calibration standard range of 1–100 µg/mL for VCM. QC samples (3, 15, 80 µg/mL) were independently prepared by spiking an appropriate amount of the working standard solution in drug-free human control serum.\nA simple and rapid sample preparation was applied by protein precipitation in SiroccoTM 96-well filtration plate (Waters Corp., Milford, MA, USA). Standard curve samples (100 μL), QC samples, and subject serum samples were added individually into 96-well plates by an eight-channel hand-held pipettor. To precipitate the serum protein, 200 μL ACN (acetonitrile) solution c ontaining 100 μg/mL of the IS solution was added to each sample (standards, QCs, and samples). Sirocco plates were capped and mixed by vortexing for 3 min and held for 15 min, subsequently placed on a vacuum manifold, and filtered to remove any precipitated material. The filtrate was collected into another 96-well plate and was evaporated to dryness with a nitrogen flow at 37 °C (TURBOVAP 96, Biotage, Uppsala, Sweden). All dry residues were reconstituted by the addition of 50 μL water. Finally, the plates were vortex mixed for 1 min, followed by centrifugation for 10 min at 12,000 rpm at 4 °C using a 5804 R Eppendorf refrigerated centrifuge (Hamburg, Germany). The supernatant was transferred to the autosampler for injection onto the CE."}, "[5]": {"conditions": "spiked human serum, HQC 80 µg/mL"}, "[6]": {"conditions": "spiked human serum, LQC 3 µg/mL"}, "[7]": {"conditions": "spiked human serum, MQC 15 µg/mL"}}, "data": [{"smiles": "CN[C@H](CC(C)C)C(=O)N[C@H]1C(=O)N[C@@H](CC(N)=O)C(=O)N[C@H]2C(=O)N[C@H]3C(=O)N[C@H](C(=O)N[C@H](C(=O)O)c4cc(O)cc(O)c4-c4cc3ccc4O)[C@H](O)c3ccc(c(Cl)c3)Oc3cc2cc(c3O[C@@H]2O[C@H](CO)[C@@H](O)[C@H](O)[C@H]2O[C@H]2C[C@](C)(N)[C@H](O)[C@H](C)O2)Oc2ccc(cc2Cl)[C@H]1O", "note": "[VCM, vancomycin]", "values": [{"measurement": "Side effects", "setting": "[1]; PDAP patients treated with VCM, i.p. 1.0 g every 5–7 days", "value": "not observed"}, {"measurement": "Changes in renal function before and after treatment", "setting": "[1]; nine PDAP patients, i.p. vancomycin 1.0 g every 5–7 days", "value": "No significant changes"}, {"measurement": "pI value", "setting": "[2]", "value": "about 7.10"}, {"measurement": "Fraction of i.p. vancomycin absorbed", "setting": "[3]", "value": "approximately 90%"}, {"measurement": "Stability in spiked serum samples (in words)", "setting": "[4]; bench-top, 30-day, autosampler and freeze-thaw conditions, three QC levels", "value": "stable"}, {"measurement": "Accuracy (%), autosampler stability", "setting": "[4]; HQC 80 µg/mL", "value": 105.70, "unit": "%"}, {"measurement": "Accuracy (%), freeze–thaw stability", "setting": "[4]; HQC 80 µg/mL", "value": 108.80, "unit": "%"}, {"measurement": "Accuracy (%), autosampler stability", "setting": "[4]; LQC 3 µg/mL", "value": 103.80, "unit": "%"}, {"measurement": "Accuracy (%), freeze–thaw stability", "setting": "[4]; LQC 3 µg/mL", "value": 110.40, "unit": "%"}, {"measurement": "Accuracy (%), autosampler stability", "setting": "[4]; MQC 15 µg/mL", "value": 107.10, "unit": "%"}, {"measurement": "Accuracy (%), freeze–thaw stability", "setting": "[4]; MQC 15 µg/mL", "value": 104.60, "unit": "%"}, {"measurement": "Accuracy (%), bench-top stability", "setting": "[4]; [5]", "value": 108.40, "unit": "%"}, {"measurement": "Accuracy (%), 30-day stability", "setting": "[4]; [5]", "value": 106.60, "unit": "%"}, {"measurement": "Accuracy (%), bench-top stability", "setting": "[4]; [6]", "value": 107.80, "unit": "%"}, {"measurement": "Accuracy (%), 30-day stability", "setting": "[4]; [6]", "value": 104.70, "unit": "%"}, {"measurement": "Accuracy (%), bench-top stability", "setting": "[4]; [7]", "value": 102.70, "unit": "%"}, {"measurement": "Accuracy (%), 30-day stability", "setting": "[4]; [7]", "value": 104.90, "unit": "%"}, {"measurement": "Measured Concentration (Mean ± SD), bench-top stability", "setting": "[4]; spiked human serum (table title: plasma), LQC 3 µg/mL", "value": "3.271 ± 0.02", "unit": "µg/mL"}, {"measurement": "Measured Concentration (Mean ± SD), autosampler stability", "setting": "[4]; HQC 80 µg/mL", "value": "85.57 ± 0.29", "unit": "µg/mL"}, {"measurement": "Measured Concentration (Mean ± SD), autosampler stability", "setting": "[4]; LQC 3 µg/mL", "value": "3.15 ± 0.01", "unit": "µg/mL"}, {"measurement": "Measured Concentration (Mean ± SD), autosampler stability", "setting": "[4]; MQC 15 µg/mL", "value": "16.26 ± 0.09", "unit": "µg/mL"}, {"measurement": "Measured Concentration (Mean ± SD), freeze–thaw stability", "setting": "[4]; [5]", "value": "88.01 ± 0.23", "unit": "µg/mL"}, {"measurement": "Measured Concentration (Mean ± SD), bench-top stability", "setting": "[4]; [5]", "value": "87.69 ± 0.38", "unit": "µg/mL"}, {"measurement": "Measured Concentration (Mean ± SD), 30-day stability", "setting": "[4]; [5]", "value": "86.24 ± 0.52", "unit": "µg/mL"}, {"measurement": "Measured Concentration (Mean ± SD), freeze–thaw stability", "setting": "[4]; [6]", "value": "3.35 ± 0.02", "unit": "µg/mL"}, {"measurement": "Measured Concentration (Mean ± SD), 30-day stability", "setting": "[4]; [6]", "value": "3.18 ± 0.01", "unit": "µg/mL"}, {"measurement": "Measured Concentration (Mean ± SD), freeze–thaw stability", "setting": "[4]; [7]", "value": "15.88 ± 0.07", "unit": "µg/mL"}, {"measurement": "Measured Concentration (Mean ± SD), bench-top stability", "setting": "[4]; [7]", "value": "15.59 ± 0.09", "unit": "µg/mL"}, {"measurement": "Measured Concentration (Mean ± SD), 30-day stability", "setting": "[4]; [7]", "value": "15.92 ± 0.08", "unit": "µg/mL"}]}]}
